One test concerns FVB male mice. As to the kind of experiment: Acute inflammatory exudates: zymosan A murine peritonitis (leukocyte infiltration). In kind it is in vivo, mouse. As to conditions: for anti-inflammatory potency in vivo, PMN infiltration (in words): dose range tested (FIG. 6), lavage at 2 h; for activity on PMN infiltration at higher doses / dose dependence (in words): higher doses (10 ng, 100 ng); for kind of joint anti-inflammatory action of PD1 and RvE1: 10 ng/mouse i.p. of either or both, 2 h. As to the method:
Peritonitis was carried out using 6-8 week-old FVB male mice (Charles River Laboratories) fed laboratory Rodent Diet 5001 (Purina Mills) that were anesthetized with isoflurane, and compounds to be tested were administered intraperitoneally. […] Each compound tested or vehicle alone was suspended in 1 μl ethanol and mixed in sterile saline (120 μl). After intraperitoneal injections (either 2 or 4 hours of acute inflammation), the mice were sacrificed in accordance with the Harvard Medical Area Standing Committee on Animals protocol no. 02570, and peritoneal lavages were collected rapidly and placed in an ice bath (4° C.) for enumeration, differential counts, and further analysis.

Test [1] relates to human PMN transmigration across endothelial cells. Description: Human PMN transmigration across HMEC monolayers, LTB4-induced. In kind it is cell-based. As to conditions: compound 15 min, LTB4 10^-8 M 90 min. As for the experimental part: PMN were freshly isolated from whole blood obtained by venipuncture from healthy human donors (who denied taking medication for 2 weeks prior to donation; BWH protocol no. 88-02642) and anti-coagulated with acid citrate dextrose as in (40, 41). Briefly, plasma and mononuclear cells were removed by aspiration from the buffy coat after centrifugation (400 g; 20 min) at room temperature. Histopaque (density 1.077) was from Sigma-Aldrich (St. Louis, Mo.). RBCs were sedimented using 2% gelatin, and residual RBCs were removed by lysis in ice-cold NH4Cl buffer. The cell suspensions were >90% PMN as determined by light microscopic evaluation. PMN were suspended at 5×10^7 cells/ml in HBSS with 10 mM Hepes, pH 7.4, and without Ca^2+ or Mg^2+ (Sigma-Aldrich, St. Louis, Mo.). PMN were used within 2 hours of their isolation.
Human Microvascular Endothelial Cells (HMEC; a gift from Francisco Candal of the Centers for Disease Control, Atlanta, Ga.) were obtained as primary cultures. For preparation of experimental HMEC monolayers, confluent endothelial cells were grown on 0.33 cm^2 ring-supported polycarbonate filters (5 μm pore size; Costar Corp., Cambridge, Mass.) in the apical-to-basolateral direction. Cells were grown for ˜1 week prior to transmigration experiments.
Transmigration was conducted essentially as in ref. (41). PMN were incubated with either vehicle-containing buffer or compound for 15 minutes at 37° C. A chemotactic gradient was established by placing HMEC inserts that had been washed in HBSS with Ca^2+ and Mg^2+ (denoted +/+) in 10^−8M LTB4 in the lower chambers. Neutrophils (10^6 cells) were added to 50 μl HBSS +/+ in the upper chambers and cells were incubated at 37° C. for 90 min. Transmigrated PMN were quantified by assessing the PMN azurophilic marker myeloperoxidase and a calibration curve. PMN were lysed by the addition of Triton X-100 to a final concentration of 0.5%. The samples were acidified with citrate buffer (final concentration 100 mM, pH 4.2). An aliquot of each sample was added to an equal volume of ABTS solution (1 mM ABTS [2′-azino-bis(3-ethylbenzo-thiazoline-6-sulfonic acid)], 0.03% H2O2, 100 mM sodium citrate buffer, pH 4.2) in a 96-well plate. The resulting color was monitored using a plate reader at 405 nm and a calibration curve for cell number.

Entries after “also recorded” stand apart in the source; their conditions may differ.

With `CC/C=C\C[C@H](O)C#C/C=C/C=C/[C@H](O)C/C=C\C/C=C\CCC(=O)O` [15,16-dehydro-PD1], in the test with FVB male mice (10 ng/mouse, 4 h after injection (FIG. 9)), the “PMN infiltration (in words)” value is given as “retained activity in vivo; also recorded: slightly less potent than the native PD1; also recorded: reduced PMN infiltration; also recorded: Statistically different from *zymosan A-injected mice; also recorded: less potent”. In addition, in the test with FVB male mice (peritonitis, differential counts), the “recruitment of monocytes and lymphocytes to exudates (in words)” value is “increased the non-phlogistic recruitment of monocytes and lymphocytes”.
Turning to `CC/C=C\C[C@H](O)/C=C/C=C\C=C\[C@@H](O)C/C=C\C/C=C\CCC(=O)O` [Compound I, 10S,17S-dihydroxy-docosa-4Z,7Z,11E,13Z,15E,19Z-hexaenoic acid], the “rank order of potency” value in the test with FVB male mice (0.1 ng dose) was “Compound VI>>PD1>10S,17S-DT (the double dioxygenation product)>the Δ15-trans-PD1>>Compound V”; with FVB male mice (1-10 ng dose), “PD1≈PD1 methyl ester>>Δ15-trans PD1>10S,17S-diHDHA (isomer I)”. Besides, the “activity on PMN infiltration (in words)” value is on record as “not active” with FVB male mice (0.1 ng dose, compared to PD1) and “did display some activity” with FVB male mice (1 ng/mouse dose). For the same molecule, the “anti-inflammatory potency in vivo, PMN infiltration (in words)” value (“anti-inflammatory potency in vivo” below) with FVB male mice is reported as “nor did it carry potent actions; also recorded: substantially less potent; also recorded: PD1 (Compound II)>>10S,17S-diHDHA (Compound I); also recorded: possesses some anti-inflammatory activity in vivo, albeit proved to be much less potent than natural or synthetic PD1”. The “activity on PMN infiltration at higher doses / dose dependence (in words)” value in the test with FVB male mice was “blocked PMN infiltration, but it was less potent than PD1; also recorded: did not increase with higher doses in a statistically significant fashion”.
Regarding `CC/C=C\C[C@H](O)/C=C/C=C/C=C/[C@H](O)C/C=C\C/C=C\CCC(=O)O` [Compound III, 10R,17S-dihydroxy-docosa-4Z,7Z,11E,13E,15E,19Z-hexaenoic-acid], the “rank order of potency” value in the test with FVB male mice (0.1 ng dose) is on record as “Compound VI>>PD1>10S,17S-DT (the double dioxygenation product)>the Δ15-trans-PD1>>Compound V”; with FVB male mice (1-10 ng dose), “PD1≈PD1 methyl ester>>Δ15-trans PD1>10S,17S-diHDHA (isomer I)”. Also, in the test on FVB male mice (1 ng/mouse dose), the “activity on PMN infiltration (in words)” value is “substantially less potent”. For the same molecule, the “anti-inflammatory potency in vivo” value in the test with FVB male mice is “possesses little bioactivity in vitro or in vivo”. Moreover, the “effect on LTB4-induced PMN transmigration (in words)” value in test [1] was “possesses little bioactivity in vitro or in vivo”; in test [1] (listed as 415-trans-PD1) it was “essentially inactive”; in test [1] (listed as Δ15-trans isomer of PD1), “did not block PMN transmigration in vitro”.
For the molecule `CC/C=C\C[C@H](O)/C=C/C=C\C=C\[C@H](O)C/C=C\C/C=C\CCC(=O)O` [Compound IV, 10R,17S-dihydroxy-docosa-4Z,7Z,11E,13Z,15E,19Z-hexaenoic-acid], the “activity on PMN infiltration (in words)” value in the test with FVB male mice (1 ng/mouse dose) is on record as “essentially equipotent”. In addition, the “activity on PMN infiltration at higher doses / dose dependence (in words)” value in the test with FVB male mice is given as “did not increase potency in a dose-dependent fashion”.
`CC/C=C\C[C@@H](O)\C=C/C=C/C=C/[C@@H](O)C/C=C\C/C=C\CCC(=O)O` [Compound V, 10S,17R,-dihydroxy-docosa-4Z,7Z,11E,13E,15Z,19Z-hexaenoic-acid]: the “rank order of potency” value in the test on FVB male mice (0.1 ng dose) is reported as “Compound VI>>PD1>10S,17S-DT (the double dioxygenation product)>the Δ15-trans-PD1>>Compound V”. Besides, the “anti-inflammatory potency in vivo” value was “essentially without activity” in the test with FVB male mice and “essentially inactive in vivo” in the test on FVB male mice (listed as compound V).
Take `CC/C=C\C[C@H](O)\C=C/C=C/C=C/[C@@H](O)C/C=C\C/C=C\CCC(=O)O` [Compound VI, 10S,17S-dihydroxy-docosa-4Z,7Z,11E,13E,15Z,19Z-hexaenoic-acid]: the “rank order of potency” value in the test with FVB male mice (0.1 ng dose) is given as “Compound VI>>PD1>10S,17S-DT (the double dioxygenation product)>the Δ15-trans-PD1>>Compound V”. Moreover, the “anti-inflammatory potency in vivo” value with FVB male mice is on record as “the most potent of these isomers in vivo”; in the test with FVB male mice (listed as compound VI), “carries bioactivity”; with FVB male mice (listed as isomer VI), “≧PD1”.
On to `CC/C=C\C[C@H](O)\C=C/C=C/C=C/[C@H](O)C/C=C\C/C=C\CCC(=O)OC` [PD1 methyl ester], for which the “rank order of potency” value with FVB male mice (1-10 ng dose) is on record as “PD1≈PD1 methyl ester>>Δ15-trans PD1>10S,17S-diHDHA (isomer I)”.
Consider `CC[C@@H](O)/C=C/C=C\C[C@@H](O)/C=C/C=C/C=C\[C@@H](O)CCCC(=O)O` [RvE1, 5S,12R,18R-trihydroxy-6Z,8E,10E,14Z,16E-eicosapentaenoic acid, reference compound], for which the “kind of joint anti-inflammatory action of PD1 and RvE1” value in the test on FVB male mice is recorded as “additive rather than synergistic”; in the test on FVB male mice (listed as resolvin E1), “additive”. The “PMN infiltration, PD1 and RvE1 administered together (in words)” value with FVB male mice (10 ng/mouse i.p., exudates at 2 h) is recorded as “reduced the infiltration of PMN”.
`CCC=CCC(O)C=CC=CC=CC(O)CC=CCC=CCCC(=O)OC` (centres unmarked) [methyl ester of Compound VI]: the “anti-inflammatory potency in vivo” value in the test with FVB male mice is “potent regulator of PMN infiltration”.
